# Values quoted from earlier work as cited in patent publication US11007152B2, “Pharmaceutical composition comprising amorphous lenalidomide and an antioxidant” (Synthon B.V., priority 2015, dated 2021).
smiles,measurement,value
"Nc1cccc2c1CN(C1CCC(=O)NC1=O)C2=O (racemic) [Lenalidomide, (RS)-3-(4-Amino-1-oxo 1,3-dihydro-2H-isoindol-2-yl)piperidine-2,6-dione]",solubility in water,slightly soluble
